The target of assay [1] is T1, indoleamine 2,3-dioxygenases 2 (IDO2) (Homo sapiens, UniProt Q6ZQW0).
T1 construct: purchased BPS Bioscience, Inc. (San Diego, CA, USA)
T1 sequence (Q6ZQW0 1-407): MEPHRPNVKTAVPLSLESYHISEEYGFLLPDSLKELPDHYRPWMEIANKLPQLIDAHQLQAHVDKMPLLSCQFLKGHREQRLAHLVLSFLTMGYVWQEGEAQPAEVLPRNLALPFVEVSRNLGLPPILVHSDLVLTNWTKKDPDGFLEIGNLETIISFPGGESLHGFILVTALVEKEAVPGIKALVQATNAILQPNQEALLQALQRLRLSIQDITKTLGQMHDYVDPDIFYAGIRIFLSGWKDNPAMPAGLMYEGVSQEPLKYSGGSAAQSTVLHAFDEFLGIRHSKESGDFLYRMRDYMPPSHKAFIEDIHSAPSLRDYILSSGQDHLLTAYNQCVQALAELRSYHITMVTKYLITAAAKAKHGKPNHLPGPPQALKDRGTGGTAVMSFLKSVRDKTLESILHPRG
Nature of the assay: Universal IDO1/IDO2/TDO Inhibitor Screening Assay Kit, IDO2. It is filed as biochemical. The settings on record: read-out: Inhibition (%) IDO2. As for the experimental part:
(§1) This colorimetric assay is based on the measurement of the ability of IDO1, IDO2 and TDO to convert L-tryptophan into N-formylkynurenine (NFK). The experiments were performed according to the manufacturer’s guidelines. The final concentration of the compounds and extracts in the reaction mixture was 100 µg/mL. The amount of NFK was measured spectrophotometrically at 320 nm using an Epoch BioTek microplate reader (BioTek Instruments, Inc., Winooski, VT, USA). The samples were run in triplicate and the results were expressed as mean ± SEM.

In assay [2] the target is T2, tryptophan 2,3-dioxygenase (TDO) (Homo sapiens, UniProt P48775).
T2 construct: purchased BPS Bioscience, Inc. (San Diego, CA, USA)
Kind of assay: Universal IDO1/IDO2/TDO Inhibitor Screening Assay Kit, TDO. It is filed as biochemical. The settings on record: read-out: Inhibition (%) TDO. As for the experimental part: as §1

Structures are written as SMILES.

T2 sequence (P48775 whole entry, species assumed): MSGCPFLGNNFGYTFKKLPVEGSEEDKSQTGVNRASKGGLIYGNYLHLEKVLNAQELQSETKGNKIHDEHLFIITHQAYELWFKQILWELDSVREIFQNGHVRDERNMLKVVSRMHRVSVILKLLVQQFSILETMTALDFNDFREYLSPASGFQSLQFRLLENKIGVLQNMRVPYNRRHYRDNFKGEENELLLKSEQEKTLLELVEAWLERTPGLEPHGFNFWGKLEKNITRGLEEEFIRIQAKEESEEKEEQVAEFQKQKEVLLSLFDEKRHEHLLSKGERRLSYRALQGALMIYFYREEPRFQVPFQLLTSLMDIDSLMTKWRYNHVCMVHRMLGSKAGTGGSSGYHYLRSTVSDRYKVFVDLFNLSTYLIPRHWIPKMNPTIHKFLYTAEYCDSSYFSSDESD

Turning to `NS(=O)(=O)NCCNc1nonc1C(=NO)Nc1ccc(F)c(Br)c1` [epacadostat, reference compound], the inhibition at 100 µg/mL in assay [1] and in assay [2] was less than 10% each time.
